# Assay results published in patent US10028992B2, “Methods of treating muscular dystrophy” (BOARD OF REGENTS OF THE NEVADA SYSTEM OF HIGHER EDUCATION …, priority 2012, dated 2018).
# Like-named read-outs stand apart in the source and are kept apart here.
# Tested on: α7 integrin promoter
# Test: muscle cell-based assay: α7βgal+/− myoblasts/myotubes, LacZ reporter, β-galactosidase cleavage of FDG
# Set-up: species or system mouse
# Conditions: for AC50 / Emax: Mus musculus; for AC50: log of AC50, given with negative sign, unit of AC50 not given, read-out: Fit Log AC50 (converted); for Emax: read-out: Max Response [%]
# Protocol: An α7 integrin null mouse was produced in which exon 1 of the gene encoding the α7 integrin was replaced by the LacZ reporter. In these mice, all the transcriptional regulatory elements of the α7 integrin promoter were retained, allowing β-galactosidase to report expression of 7 integrin. A primary myoblast cell line (designated α7βgal^+/−) isolated from 10 day old α7^+/− pups were analyzed for the ability of β-galactosidase to report α7 integrin expression. α7βgal^+/− myoblasts were differentiated and subjected to X-gal staining and western analysis (FIGS. 1A and 1B).
# The activity of the α7 integrin promoter was measured by β-galactosidase cleavage of the non-fluorescent compound fluorescein di-β-D-galactopyranoside (FDG) to fluorescein. This assay was used to screen compound libraries to identify molecules that up-regulate α7 integrin expression in muscle.
# Also evaluated was the effect of various isoforms of laminin and the ligand for α7β1 integrin on integrin expression. Positive hits were subjected to dose-response analysis, western analysis and a myostatin counterscreen (a negative regulator of muscle growth).
# [1] = Table 12, fitted activity at zero concentration
# [2] = Table 12 Compound data, concentration-response curve fit
Structure (SMILES),AC50 (Table 12),Emax,"Fit HillSlope (Table 12, curve fit)",Fit Zero Activity [%] [1],"Fit Curve Class (Table 12, key not given)",Score [2],Activity at 1.530 μM [%] ** (1.530 μM),Activity at 0.307 μM [%] ** (0.307 μM),Curve Description,Fit Curve Class,Fit HillSlope,Fit Infinite Activity [%],Fit Log AC50,Fit Zero Activity [%],Score
Cc1ccc(-c2onc3ccc(C(=O)/C=C/N(C)C)cc23)cc1 [Compound 39],3.55 µM,69.1%,1.7529,−9.0026%,1.2,63,,,,,,,,,
Cc1cccn2c(=O)c3cc(C(=O)NC4CCCCC4)n(C)c3nc12 [Compound 40],14.1 µM,427%,4.5045,−3.212%,2.1,48,,,,,,,,,
COc1ccc(Cl)cc1NC(=O)CC(=O)Nc1cc(Cl)ccc1OC [Compound 41],14.1 µM,453%,4.5045,8.8874%,2.1,48,,,,,,,,,
COc1cc(/C=C/CN2CCN(Cc3ccc(C)o3)C(CCO)C2)ccc1O (centres unmarked) [Compound 42],14.1 µM,481%,4.9549,9.6207%,2.1,48,0%,,,,,,,,
O=C(Cn1cccc1C(=O)c1ccccc1)NCCCc1ccccc1 [Compound 43],3.98 µM,131%,0.9,0%,2.1,47,,,,,,,,,
CC(=O)Nc1ccc(N(C(=O)c2cnccn2)C(C(=O)NC2CCCCC2)c2ccc(F)cc2)cc1 (centres unmarked) [Compound 44],11.2 µM,308%,4.095,−17.6073%,2.1,47,,,,,,,,,
COc1ccc(N2CCCC2)c(NC(=O)c2ccc([N+](=O)[O-])o2)c1 [Compound 46],7.94 µM,156%,1.01,−35.6022%,2.1,46,,,,,,,,,
CC(=O)Nc1ccc(NC(=O)[C@@H](NC(=O)c2cccc(C)c2)C(C)C)cc1 [Compound 47],5.62 µM,142%,1.331,12.5272%,2.1,46,,,,,,,,,
O=C(O)c1cc(/N=C/c2c(O)oc3ccccc3c2=O)ccc1O [Compound 48],7.08 µM,165%,1.7137,−35.4511%,2.1,46,,,,,,,,,
O=[N+]([O-])c1ccc(N2CCN(c3ccccc3F)CC2)nc1 [Compound 49],5.62 µM,151%,1.9282,2.973%,2.1,46,,,,,,,,,
O=C1SC(Cc2ccccc2)C(=O)N1c1ccccc1 (centres unmarked) [Compound 50],7.94 µM,176%,1.8851,5.0579%,2.1,46,,,,,,,,,
Cc1ccc(NCc2nnc(SCC(=O)Nc3nnc(C)s3)n2C)cc1 [Compound 51],10 µM,249%,4.9549,−23.8252%,2.1,46,,,,,,,,,
CC1CCCCN1c1ncnc(N)c1[N+](=O)[O-] (centres unmarked) [Compound 52],4.47 µM,130%,1.4781,−27.7073%,2.1,46,,,,,,,,,
O=C(Nc1ccc(Cl)cc1N1CCOCC1)C1CCCCC1 [Compound 53],7.08 µM,119%,0.8,−11.267%,2.1,45,,0%,,,,,,,
CCCn1c(-c2cc(OC)c(OC)c(OC)c2)nc2c1c(=O)[nH]c(=O)n2Cc1ccccc1 [Compound 54],12.6 µM,,1.1341,39.3368%,2.1,45,,,,,,,,,
CS(=O)(=O)c1ccc(Cl)c(NC(=O)CSc2nncn2-c2ccccc2)c1 [Compound 55],12.6 µM,,4.9549,−18.4203%,2.1,45,,,,,,,,,
CC(C)(CC(=O)O)CC(=O)N1CCCN(c2nccc(C(F)(F)F)n2)CC1 [Compound 56],3.98 µM,,1.5095,21.8862%,2.1,45,,,,,,,,,
COc1cc(CNCc2ccc(C(=O)O)cc2)ccc1OCc1ccc(F)cc1.Cl [Compound 57],4.47 µM,,1.7529,−0.5596%,2.1,45,,,,,,,,,
COc1ccc(Nc2ncnc3ccc(C)cc23)cc1 [Compound 58],3.55 µM,,0.9,−42.3624%,2.1,45,,,,,,,,,
COc1ccc(-n2c(C)c(C(C)=O)c3cc(OC(C)=O)ccc32)cc1 [Compound 59],10 µM,,3.5722,−3.6299%,2.1,45,,,,,,,,,
O=C(COC(=O)c1cc2ccccc2oc1=O)Nc1ccc(F)cc1F [Compound 60],4.47 µM,,1.7529,−12.5146%,2.1,45,,,,,,,,,
CCNC(=O)CSc1nc(-c2ccc(F)cc2)cs1 [Compound 61],5.01 µM,,1.1705,−3.94%,2.1,45,,,,,,,,,
CC(C)NC(=O)CN1CCN(C(=O)CCl)CC1.Cl [Compound 62],7.08 µM,,1.9673,−23.864%,2.1,45,,,,,,,,,
CS(=O)(=O)N(Cc1ccc(C(=O)NC2CCCC2)cc1)c1ccccc1 [Compound 63],10 µM,,3.1925,−1.7425%,2.1,45,,,,,,,,,
C=CCN(CC=C)C(=O)c1ccc(OC2CCN(S(=O)(=O)N(C)C)CC2)cc1 [Compound 64],5.01 µM,,2.4729,−4.9734%,2.1,45,,,,,,,,,
O=C(O)CCn1cc(/C=C2/NC(=S)N(c3ccccc3)C2=O)c(-c2ccccc2)n1 [Compound 65],,,,,,,,,Partial,2.1,4.095,501.215%,−4.7,9.2299%,45
CCc1nnc(NC(=O)c2ccc(S(=O)(=O)NCC(C)C)cc2)s1 [Compound 66],12.6 µM,,4.5045,11.9175%,2.1,45,,,,,,,,,
CC1CCCCC12NC(=O)N(CC(=O)OCc1cccc(F)c1)C2=O (centres unmarked) [Compound 67],10 µM,,1.4163,4.7344%,2.1,44,,,,,,,,,
